In series [1] the test system is CC(C)C[C@H](NC(=O)CNC(=O)[C@@H]1CCCN1C(=O)[C@H](CC(C)C)NC(=O)[C@H](CO)NC(=O)[C@H](C)NC(=O)[C@@H](NC(=O)[C@H](COP(=O)(O)O)NC(=O)[C@H](CC(C)C)NC(=O)[C@H](C)NC(=O)[C@H](CCCNC(=N)N)NC(=O)[C@H](CCCNC(=N)N)NC(=O)[C@H](CCCNC(=N)N)NC(=O)[C@@H](N)CCCCN)C(C)C)C(=O)O. In words: Casein kinase assay, TgCKIα (recombinant FLAGTgCKIα or partially purified native). The class given is biochemical. To be noted: other: substrate titration, 2 μM ATP; pH 7.4; 37.0 °C. Here is the method: (§1) Protein kinase assays—Casein kinase activity was assayed essentially as described (Donald, R. G. K. et al., 2002, supra) using 96-well phosphocellulose plates (MAPH-NOB, Millipore; Billerica, Mass.) to capture ^33P-phosphorylated peptide or casein substrates. Kinase reactions were carried out in 40 μl volumes containing 25 mM Hepes, pH 7.4, 10 mM MgCl2, 20 mM β-glycerophosphate, 1 mM DTT, 250 μM substrate, 1 mg/mL BSA, 2 μM ATP, and 0.01 μM [γ-^33P]ATP (Perkin-Elmer, 3000 Ci/mmol). […] Casein (5% solution), partially dephosphorylated α-casein and β-casein were obtained from Sigma.
(§2) A variety of commercially available peptide substrates were evaluated. From Calbiochem (San Diego, Calif.): CKI substrate (RRKDLHDDEEDEAMSITA; SEQ ID NO:13); CKII substrate (RRADDSDDDDD; SEQ ID NO:14); Syntide-2 substrate (PLARTLSVAGLPGKK; SEQ ID NO:15); CaM kinase II substrate (281-291) (MHKNETVECLK; SEQ ID NO:16). From Promega: CKI substrate (DDDEESITRR; SEQ ID NO:17) and kemptide (LRRASLG; SEQ ID NO:18). […]
(§3) Purification of recombinant CKI enzymes—E. coli strain BL21 Origami™ (Novagen) was transformed with FLAGTgCKIα and FLAGTgCKIβ expression vectors, and colonies were expanded into 250 mL LB cultures grown at 37° C. […] Protein was measured with a micro-BCA reagent (Pierce) following a TCA-sodium deoxycholate step to remove residual FLAG peptide (Brown et al., 1989, Anal. Biochem. 180:136-139). […]

In series [2] the test system is T. gondii tachyzoites. The series is described as follows: [3H]-uracil uptake assay of parasite growth inhibition in infected HFF cell monolayers. The series is classed as cell-based, Toxoplasma gondii. An excerpt:
Host cells and parasite cultures—RH strain or RH ΔHXGPRT strain tachyzoites of T. gondii were maintained by serial passage in confluent monolayers of human foreskin fibroblasts (“HFF”) as described (Roos, D. S. et al., 1994, Methods Cell Biol. 45:27-63). A modified [^3H]-uracil uptake assay (Pfefferkorn, E. R. and Pfefferkorn, L. C., 1977, J. Protozool. 24:449-453) adapted for use in 96-well scintillation plates (Cytostar-T, Amersham; Piscataway, N.J.) was used to measure parasite growth inhibition. Each well, previously seeded with HFF cells, was inoculated with T. gondii tachyzoites (2×10^4) in 200 μl of growth media containing 2 μCi [5,6]-^3H-uracil (Perkin-Elmer NEN; Boston, Mass.) and serially diluted compound. Following incubation at 37° C. for 36-48 hours, tritium-incorporation into host cell monolayers was directly counted in a microplate scintillation counter (MicroBeta, PerkinElmer-Wallac).

In series [3] the test system is T. gondii PKG, CKIα and -β, and CDPK1; native E. tenella CKIα. The series is described as follows: Protein kinase assays, the parasite kinases tested (Table 2 panel). The series is classed as biochemical. The method, then:
(§4) Protein kinase assays—Casein kinase activity was assayed essentially as described (Donald, R. G. K. et al., 2002, supra) using 96-well phosphocellulose plates (MAPH-NOB, Millipore; Billerica, Mass.) to capture ^33P-phosphorylated peptide or casein substrates. Kinase reactions were carried out in 40 μl volumes containing 25 mM Hepes, pH 7.4, 10 mM MgCl2, 20 mM β-glycerophosphate, 1 mM DTT, 250 μM substrate, 1 mg/mL BSA, 2 μM ATP, and 0.01 μM [γ-^33P]ATP (Perkin-Elmer, 3000 Ci/mmol). The reactions were initiated by the addition of enzyme and incubated at room temperature for 60 min. Casein (5% solution), partially dephosphorylated α-casein and β-casein were obtained from Sigma.
(§5) A variety of commercially available peptide substrates were evaluated. From Calbiochem (San Diego, Calif.): CKI substrate (RRKDLHDDEEDEAMSITA; SEQ ID NO:13); CKII substrate (RRADDSDDDDD; SEQ ID NO:14); Syntide-2 substrate (PLARTLSVAGLPGKK; SEQ ID NO:15); CaM kinase II substrate (281-291) (MHKNETVECLK; SEQ ID NO:16). From Promega: CKI substrate (DDDEESITRR; SEQ ID NO:17) and kemptide (LRRASLG; SEQ ID NO:18). From New England Biolabs (Beverly, Mass.): CKI phosphopeptide substrate (KRRRALS(p)VASLPGL; SEQ ID NO:19), and CKII substrate (RRREEETEEE; SEQ ID NO:20). PKG assays were performed with kemptide as substrate and 10 μM cGMP. CDPK was assayed with Syntide-2 substrate and in the presence of 100 μM CaCl2.

The target in series [4] is mammalian CDK1 (Homo sapiens, UniProt P06493). To be noted: Knockaert et al., 2002; cited from earlier work.
Sequence of mammalian CDK1 (P06493 whole entry): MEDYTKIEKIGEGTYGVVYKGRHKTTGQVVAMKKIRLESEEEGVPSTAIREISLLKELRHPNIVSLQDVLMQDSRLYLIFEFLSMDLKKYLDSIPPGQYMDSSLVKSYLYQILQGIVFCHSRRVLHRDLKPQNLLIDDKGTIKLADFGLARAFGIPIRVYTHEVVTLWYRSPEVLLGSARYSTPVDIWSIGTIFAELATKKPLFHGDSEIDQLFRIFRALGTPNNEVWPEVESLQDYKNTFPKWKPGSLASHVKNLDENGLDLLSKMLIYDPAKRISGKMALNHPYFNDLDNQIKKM
Sequence of mammalian CDK1 (P14635 whole entry partner): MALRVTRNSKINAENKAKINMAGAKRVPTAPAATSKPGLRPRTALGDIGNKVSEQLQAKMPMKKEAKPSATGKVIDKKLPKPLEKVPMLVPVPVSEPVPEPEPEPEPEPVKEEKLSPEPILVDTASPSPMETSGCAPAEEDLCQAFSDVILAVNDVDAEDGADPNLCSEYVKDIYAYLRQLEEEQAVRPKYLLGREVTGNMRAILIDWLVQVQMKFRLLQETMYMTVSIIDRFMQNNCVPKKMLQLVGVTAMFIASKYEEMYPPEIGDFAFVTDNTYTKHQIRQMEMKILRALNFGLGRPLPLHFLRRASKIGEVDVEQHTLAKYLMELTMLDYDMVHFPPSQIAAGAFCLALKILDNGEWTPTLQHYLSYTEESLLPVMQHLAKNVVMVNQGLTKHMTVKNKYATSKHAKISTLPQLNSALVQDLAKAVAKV
For series [5], the target named is mammalian CDK5 (Homo sapiens, UniProt Q00535). The following applies: Knockaert et al., 2002; cited from earlier work.
Sequence of mammalian CDK5 (Q00535 whole entry): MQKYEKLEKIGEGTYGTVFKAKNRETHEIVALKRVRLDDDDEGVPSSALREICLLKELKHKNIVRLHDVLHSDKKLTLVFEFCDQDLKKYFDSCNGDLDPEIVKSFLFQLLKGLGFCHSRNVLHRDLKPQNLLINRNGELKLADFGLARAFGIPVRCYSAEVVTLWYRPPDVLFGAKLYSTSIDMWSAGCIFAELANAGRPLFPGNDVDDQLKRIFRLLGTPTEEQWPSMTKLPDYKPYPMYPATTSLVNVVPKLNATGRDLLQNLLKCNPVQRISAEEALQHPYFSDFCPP
Sequence of mammalian CDK5 (Q15078 99-307 partner limits assumed): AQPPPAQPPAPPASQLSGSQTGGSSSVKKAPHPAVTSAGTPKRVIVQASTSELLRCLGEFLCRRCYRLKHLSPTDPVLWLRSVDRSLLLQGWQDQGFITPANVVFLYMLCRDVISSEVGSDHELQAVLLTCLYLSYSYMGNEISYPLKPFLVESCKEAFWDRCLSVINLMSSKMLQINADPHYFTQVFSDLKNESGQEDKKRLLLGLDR
Series [6] addresses TgCKIβ (Toxoplasma gondii, UniProt Q6QNM0). The series is described as follows: Casein kinase assay, recombinant FLAGTgCKIβ. The class given is biochemical. To be noted: recombinant enzyme; read-out: IC50 against TgCKIβ. Here is the method:
as §1, §5
Purification of recombinant CKI enzymes—E. coli strain BL21 Origami™ (Novagen) was transformed with FLAGTgCKIα and FLAGTgCKIβ expression vectors, and colonies were expanded into 250 mL LB cultures grown at 37° C. Expression was induced with 1 mM IPTG once cultures had reached an OD600nm of 0.3-0.5, and the transformed bacteria were harvested 4-6 hours later. Cell pellets were resuspended in 15 mL of lysis buffer containing protease inhibitors and lysates prepared as described by the supplier (Bugbuster™ reagents, Novagen). The concentration of NaCl in the lysate was adjusted to 0.5 M, and 0.5 mL of FLAG-agarose beads were added (Sigma). The mixture was allowed to rock in a Nutator mixer (Becton-Dickinson; San Jose, Calif.) for 2 hours at 4° C. The slurry was then poured into an empty column and the matrix washed with 50 mL of wash buffer (50 mM Tris-HCl, pH 7.4, 0.5M NaCl, 10% glycerol, 1 mM DTT, 1 mM EDTA). Enzyme was eluted with 5 mL of 0.4 mg/mL FLAG peptide (Sigma) in NaCl-free wash buffer and concentrated with a centrifuge filtration unit (Amicon Ultra®, 10 kDa cut-off, Millipore). Protein was measured with a micro-BCA reagent (Pierce) following a TCA-sodium deoxycholate step to remove residual FLAG peptide (Brown et al., 1989, Anal. Biochem. 180:136-139). Using this procedure, and SDS-PAGE analysis, the yield of FLAGTgCKIβ was estimated as ˜200 μg of enzyme with >90% purity. Purification of FLAGTgCKIα was much less efficient with only about 1 μg of ˜10% pure enzyme obtained per 250 mL bacterial culture.
(§6) Preparations of FLAGTgCKIα and FLAGTgCKIβ were purified further on a SMART system FPLC 0.1 mL MonoQ anion exchange column (Pharmacia; New York, N.Y.) equilibrated in buffer A (50 mM Hepes, pH 7.4, 10% glycerol, 1 mM DTT) at room temperature. Samples of FLAG-affinity purified enzyme (10-100 μg) were syringe-passed through a 0.22 μm (pore-size) filter before loading on the column. A linear salt gradient was applied (0-500 mM in 3 mL at 100 μl/min) and 100 μl fractions were collected and analyzed by SDS-PAGE and for CKI activity. Fractions with peak activity were retained for further analysis. The degree of purity of the partially purified FLAGTgCKIα was estimated by densitometry of silver stained SDS-PAGE gels. A recombinant rat CKIδ enzyme used for control purposes was obtained from New England Biolabs.

Series [7] concerns the target T1, rat CKIδ (Rattus norvegicus, UniProt Q06486).
T1 construct: purchased New England Biolabs
T1 sequence (Q06486 1-317 limits assumed): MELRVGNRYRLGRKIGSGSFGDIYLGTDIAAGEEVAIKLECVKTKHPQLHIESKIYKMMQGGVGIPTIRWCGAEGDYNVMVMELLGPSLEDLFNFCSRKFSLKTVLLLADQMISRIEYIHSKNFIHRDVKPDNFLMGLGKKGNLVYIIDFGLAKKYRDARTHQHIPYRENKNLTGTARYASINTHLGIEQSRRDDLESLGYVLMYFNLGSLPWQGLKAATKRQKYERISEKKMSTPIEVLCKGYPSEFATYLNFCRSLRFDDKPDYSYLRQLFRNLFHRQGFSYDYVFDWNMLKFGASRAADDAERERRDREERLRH
The series is described as follows: Casein kinase assay, recombinant rat CKIδ control enzyme. The class given is biochemical. To be noted: read-out: IC50 against rodent CKIδ. The method, then:
as §4
as §6, with “A recombinant rat CKIδ enzyme used for control purposes was obtained from New England Biolabs.” left out

The target of series [8] is TgCKIα (Toxoplasma gondii, UniProt Q6QNM1). The series is described as follows: Casein kinase assay, TgCKIα (recombinant FLAGTgCKIα or partially purified native). The series is classed as biochemical. Also on record: other: recombinant or native forms of TgCKIα. Here is the method: as §1, §5, §3
Sequence of TgCKIα (Q6QNM1 whole entry, looked up): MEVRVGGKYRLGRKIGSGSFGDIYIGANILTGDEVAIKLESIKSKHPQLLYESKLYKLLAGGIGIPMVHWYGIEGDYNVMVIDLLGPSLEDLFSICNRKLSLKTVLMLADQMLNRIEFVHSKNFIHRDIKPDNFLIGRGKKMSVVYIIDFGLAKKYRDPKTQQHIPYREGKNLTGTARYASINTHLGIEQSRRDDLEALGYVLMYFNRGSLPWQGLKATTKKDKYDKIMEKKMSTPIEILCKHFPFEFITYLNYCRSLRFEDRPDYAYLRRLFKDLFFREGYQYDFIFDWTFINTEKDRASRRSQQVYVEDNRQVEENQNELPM
Preparations of FLAGTgCKIα and FLAGTgCKIβ were purified further on a SMART system FPLC 0.1 mL MonoQ anion exchange column (Pharmacia; New York, N.Y.) equilibrated in buffer A (50 mM Hepes, pH 7.4, 10% glycerol, 1 mM DTT) at room temperature. […] A linear salt gradient was applied (0-500 mM in 3 mL at 100 μl/min) and 100 μl fractions were collected and analyzed by SDS-PAGE and for CKI activity. […]

Substrate in series [9]: CC(C)C[C@H](NC(=O)CNC(=O)[C@@H]1CCCN1C(=O)[C@H](CC(C)C)NC(=O)[C@H](CO)NC(=O)[C@H](C)NC(=O)[C@@H](NC(=O)[C@H](COP(=O)(O)O)NC(=O)[C@H](CC(C)C)NC(=O)[C@H](C)NC(=O)[C@H](CCCNC(=N)N)NC(=O)[C@H](CCCNC(=N)N)NC(=O)[C@H](CCCNC(=N)N)NC(=O)[C@@H](N)CCCCN)C(C)C)C(=O)O
In words: Casein kinase assay, recombinant FLAGTgCKIβ. The class given is biochemical. The following applies: other: substrate titration, 2 μM ATP; pH 7.4; 37.0 °C. Here is the method:
as §1, §2, §3

Consider five molecules from patent publication US7671181B2, “Polynucleotides encoding coccidian parasite casein kinase I, a chemotherapeutic target for antiprotozoal agents” (Merck Sharp & Dohme Corp., priority 2004, dated 2010).

In general, Vmax refers to the rate approached at saturating substrate. In the case of TgCKIα (Toxoplasma gondii), the Vmax in series [1] is 26 nmol/min/mg.

Consider `O=C1Cc2c([nH]c3ccc(Br)cc23)-c2ccccc2N1` [kenpaullone], for which the “activity against cultured T. gondii parasites” value in series [2] (uracil uptake / whole cell assay) was “inactive”. The “activity against the parasite kinases tested” value in series [3] was “Neither kenpaullone nor alsterpaullone showed any activity”.

The IC50 is the point on the concentration scale where inhibition reaches its midpoint. Consider `O=C1Cc2c([nH]c3ccc([N+](=O)[O-])cc23)-c2ccccc2N1` [alsterpaullone], for which, in [2] (Toxoplasma gondii, infected HFF cell monolayers, read-out: IC50, antiparasitic activity in the whole cell assay), the IC50 came to 1200 nM. For the same molecule, the “activity against the parasite kinases tested” value in [3] is on record as “Neither kenpaullone nor alsterpaullone showed any activity”. Moreover, the “potency against mammalian CDK1 relative to kenpaullone” value in series [4] is “at least 10 fold”. In [5], the “potency against mammalian CDK5 relative to kenpaullone” value was “at least 10 fold”.

In the case of `NC1=NC(=O)/C(=C2\CCNC(=O)c3[nH]c(Br)cc32)N1` [Hymenialdisine], the IC50 in [6] was 7 to 10 nM; in [7], 60 nM; in series [8] it was 7 to 10 nM.

B1: TgCKIβ (Toxoplasma gondii) (protein)
chain: MAHHQDTRNHTGVGPSSSIPLKDLKIAGVWKIGRKIGSGSFGDIYKGLNSQTGQEVALKVESTKAKHPQLLYEYKLLKHLQGGTGIAQVFCCETAGDHNIMAMELLGPSLEDVFNLCNRTFSLKTILLLADQFLQRVEYIHSKNFIHRDIKPDNFLLGGAGNQNTIYVIDFGLAKKFRDPKTHQHIPYRENKNLTGTARYASISAHLGSEQSRRDDLEAVGYVLMYFCRGGTLPWQGIKANTKQEKYHKIMEKKMSTPVEVLCKGYPSEFATYLHYCRSLRFEDRPDYAYLKRLFRDLYIKEGYDDSDREFDWTVKLSSRSLGPPSSRAQHVLLSQDTRTRGKRETDRPVAARSGDRERGIHFSNGNVGNPSMATNPGGLSVMVHERTSLVDQGDRGSRETSTRKEDAKDGRWPGGRFSCLPLLCRRSPTKA
Usually Km stands for the substrate concentration at which the rate is half of its maximum. Consider B1, for which, in series [9], the Km came out at 79 µM and the Vmax was determined as 37 nmol/min/mg.
